Experimental findings from patent US20230356105A1, “TETRAAZADODECANE BASED CHELATING AGENTS FOR SEPARATION OF RARE EARTH ELEMENTS AND METHOD THEREFOR” (Ustav Organicke Chemie a Biochemie AV CR V.V.I., priority 2020, published 2023) are described below.

The nature of this series: Use of additives to improve separation of Nd/Dy mixture by precipitation with L5 (Example 18). The series is classed as physicochemical. The conditions noted are these: 11 mM L5. As for the experimental part: Stock solutions were pipetted into plastic 1×1 cm cuvettes to prepare reaction mixtures with concentrations as follows: • 1. […] 5 mM NdCl3 • 3. 5 mM DyCl3 • 4. 500 mM MOPS pH=7 • 5. the additive of interest, in a variable concentration; if possible, stock solutions were prepared from Na^+ salt forms of the compound; if not, the stock solutions were titrated by NaOH/HCl to pH=7 prior to addition (see Table 12 for additives and concentrations)
These aqueous reaction mixtures, each prepared to a total volume of 2.0 mL with the addition of water as necessary, were mixed by the use of a PTFE-coated stir bar on a magnetic stirrer. The cuvettes were sealed with transparent tape to prevent evaporation overnight. The reaction mixtures were stirred for 18 hours, at which point 500 μL aliquots of each reaction mixture were transferred into plastic 2 mL Eppendorf tubes and centrifuged. The supernatants were carefully pipetted out and transferred to a new set of tubes. The precipitate was dissolved by addition of 500 μL 1M HCl. The absolute concentration of Nd and Dy in each supernatant and precipitate was determined by ICP-OES.

Consider `O=C(O)c1ccccn1` [picolinic acid], for which, where the note is “additive 20 mM”, the “Precipitate concentration [mM] Dy” value was found to be 0 mM, the “Precipitate concentration [mM] Nd” value amounted to 0 mM, the “Supernatant concentration [mM] Dy” value stood at 5 mM and the “Supernatant concentration [mM] Nd” value amounted to 5 mM.
With `NCC(=O)O` [glycine], the “Precipitate concentration [mM] Dy” value reads like this: (additive 50 mM) 3.60 mM; (additive 100 mM) 2.79 mM; (additive 150 mM) 2.44 mM; (additive 200 mM) 1.86 mM. For the same compound, the “Precipitate concentration [mM] Nd” value was 4.90 mM (additive 50 mM), 4.61 mM (additive 100 mM), 4.91 mM (additive 150 mM) and 4.69 mM (additive 200 mM). Moreover, the “Supernatant concentration [mM] Dy” value is reported as 1.01 mM (additive 50 mM), 1.99 mM (additive 100 mM), 2.25 mM (additive 150 mM) and 2.85 mM (additive 200 mM). Further, the “Supernatant concentration [mM] Nd” value worked out at 0.09 mM (additive 50 mM), 0.42 mM (additive 100 mM), 0.11 mM (additive 150 mM) and 0.28 mM (additive 200 mM).
Consider `O=C(O)c1ccccc1O` [salicylic acid], for which, where the note is “additive 20 mM”, the “Precipitate concentration [mM] Dy” value is reported as 4.36 mM, the “Precipitate concentration [mM] Nd” value was determined as 4.88 mM, the “Supernatant concentration [mM] Dy” value is given as 0.42 mM and the “Supernatant concentration [mM] Nd” value stood at 0.07 mM.
Take `OB(O)c1ccccc1` [phenylboronic acid]: under “additive 20 mM”, the “Precipitate concentration [mM] Dy” value is 4.33 mM, the “Precipitate concentration [mM] Nd” value is on record as 5.02 mM, the “Supernatant concentration [mM] Dy” value was found to be 0.31 mM and the “Supernatant concentration [mM] Nd” value came to 0.08 mM. For the same compound, for the setting “additive 250 mM”, the “Precipitate concentration [mM] Dy” value amounted to 3.36 mM, the “Precipitate concentration [mM] Nd” value was 4.12 mM, the “Supernatant concentration [mM] Dy” value was 1.22 mM and the “Supernatant concentration [mM] Nd” value was 0.87 mM.
With `O=[N+]([O-])O` [nitrate], for the setting “additive 100 mM”, the “Precipitate concentration [mM] Dy” value stood at 4.27 mM, the “Precipitate concentration [mM] Nd” value turned out to be 4.39 mM, the “Supernatant concentration [mM] Dy” value is listed as 0.36 mM and the “Supernatant concentration [mM] Nd” value stood at 0.14 mM. Moreover, under “additive 200 mM”, the “Precipitate concentration [mM] Dy” value stood at 3.89 mM, the “Precipitate concentration [mM] Nd” value is on record as 3.97 mM, the “Supernatant concentration [mM] Dy” value stood at 0.41 mM and the “Supernatant concentration [mM] Nd” value worked out at 0.15 mM. Under “additive 500 mM”, the “Precipitate concentration [mM] Dy” value came to 4.16 mM, the “Precipitate concentration [mM] Nd” value is 4.46 mM, the “Supernatant concentration [mM] Dy” value is reported as 0.82 mM and the “Supernatant concentration [mM] Nd” value is 0.14 mM. Besides, under “additive 1000 mM”, the “Precipitate concentration [mM] Dy” value is given as 3.23 mM, the “Precipitate concentration [mM] Nd” value is listed as 4.61 mM, the “Supernatant concentration [mM] Dy” value was 1.72 mM and the “Supernatant concentration [mM] Nd” value turned out to be 0.15 mM.
With `c1ccncc1` [pyridine], where the note is “additive 20 mM”, the “Precipitate concentration [mM] Dy” value worked out at 4.33 mM, the “Precipitate concentration [mM] Nd” value was found to be 4.90 mM, the “Supernatant concentration [mM] Dy” value was determined as 0.28 mM and the “Supernatant concentration [mM] Nd” value worked out at 0.06 mM. Also, where the note is “additive 250 mM”, the “Precipitate concentration [mM] Dy” value is reported as 4.02 mM, the “Precipitate concentration [mM] Nd” value amounted to 4.67 mM, the “Supernatant concentration [mM] Dy” value was 0.41 mM and the “Supernatant concentration [mM] Nd” value stood at 0.09 mM.
For the compound `F` [fluoride], for the setting “additive 5 mM”, the “Precipitate concentration [mM] Dy” value is recorded as 4.87 mM, the “Precipitate concentration [mM] Nd” value worked out at 6.21 mM, the “Supernatant concentration [mM] Dy” value stood at 1.21 mM and the “Supernatant concentration [mM] Nd” value was 0.13 mM. Where the note is “additive 10 mM”, the “Precipitate concentration [mM] Dy” value worked out at 3.82 mM, the “Precipitate concentration [mM] Nd” value stood at 6.15 mM, the “Supernatant concentration [mM] Dy” value is listed as 2.34 mM and the “Supernatant concentration [mM] Nd” value stood at 0.18 mM. Further, for the setting “additive 15 mM”, the “Precipitate concentration [mM] Dy” value is on record as 2.72 mM, the “Precipitate concentration [mM] Nd” value stood at 5.68 mM, the “Supernatant concentration [mM] Dy” value is 3.26 mM and the “Supernatant concentration [mM] Nd” value was found to be 0.49 mM.
`O=C(O)CC(O)(CC(=O)O)C(=O)O` [citrate]: the “Precipitate concentration [mM] Dy” value (additive 1 mM) was found to be 4.03 mM, the “Precipitate concentration [mM] Dy” value (additive 5 mM) was determined as 3.62 mM, the “Precipitate concentration [mM] Dy” value (additive 10 mM) amounted to 2.38 mM and the “Precipitate concentration [mM] Dy” value (additive 20 mM) is 1.21 mM. The “Precipitate concentration [mM] Nd” value (additive 1 mM) is 4.30 mM, the “Precipitate concentration [mM] Nd” value (additive 5 mM) is on record as 4.77 mM, the “Precipitate concentration [mM] Nd” value (additive 10 mM) is 4.49 mM and the “Precipitate concentration [mM] Nd” value (additive 20 mM) is on record as 4.08 mM. In addition, the “Supernatant concentration [mM] Dy” value by setting is: (additive 1 mM) 0.38 mM; (additive 5 mM) 1.24 mM; (additive 10 mM) 2.27 mM; (additive 20 mM) 3.52 mM. Besides, the “Supernatant concentration [mM] Nd” value runs as follows: (additive 1 mM) 0.14 mM; (additive 5 mM) 0.19 mM; (additive 10 mM) 0.25 mM; (additive 20 mM) 0.66 mM.
Turning to `Cl` [chloride], under “additive 100 mM”, the “Precipitate concentration [mM] Dy” value turned out to be 4.58 mM, the “Precipitate concentration [mM] Nd” value amounted to 4.62 mM, the “Supernatant concentration [mM] Dy” value is reported as 0.29 mM and the “Supernatant concentration [mM] Nd” value stood at 0.24 mM. Besides, under “additive 200 mM”, the “Precipitate concentration [mM] Dy” value is recorded as 4.48 mM, the “Precipitate concentration [mM] Nd” value is 4.57 mM, the “Supernatant concentration [mM] Dy” value is recorded as 0.22 mM and the “Supernatant concentration [mM] Nd” value came to 0.12 mM. Also, for the setting “additive 500 mM”, the “Precipitate concentration [mM] Dy” value was 4.29 mM, the “Precipitate concentration [mM] Nd” value was determined as 4.39 mM, the “Supernatant concentration [mM] Dy” value is given as 0.24 mM and the “Supernatant concentration [mM] Nd” value is listed as 0.11 mM. Besides, where the note is “additive 1000 mM”, the “Precipitate concentration [mM] Dy” value worked out at 4.88 mM, the “Precipitate concentration [mM] Nd” value is on record as 4.97 mM, the “Supernatant concentration [mM] Dy” value was determined as 0.24 mM and the “Supernatant concentration [mM] Nd” value was determined as 0.11 mM.
In the case of `O=S(=O)(O)O` [sulfate], for the setting “additive 100 mM”, the “Precipitate concentration [mM] Dy” value is listed as 4.52 mM, the “Precipitate concentration [mM] Nd” value is on record as 4.90 mM, the “Supernatant concentration [mM] Dy” value was determined as 0.34 mM and the “Supernatant concentration [mM] Nd” value is 0.07 mM. In addition, for the setting “additive 250 mM”, the “Precipitate concentration [mM] Dy” value was 4.09 mM, the “Precipitate concentration [mM] Nd” value is 4.96 mM, the “Supernatant concentration [mM] Dy” value is recorded as 0.47 mM and the “Supernatant concentration [mM] Nd” value is on record as 0.08 mM. Under “additive 500 mM”, the “Precipitate concentration [mM] Dy” value worked out at 3.57 mM, the “Precipitate concentration [mM] Nd” value was found to be 4.30 mM, the “Supernatant concentration [mM] Dy” value is given as 1.00 mM and the “Supernatant concentration [mM] Nd” value turned out to be 0.59 mM. Under “additive 1000 mM”, the “Precipitate concentration [mM] Dy” value was 3.35 mM, the “Precipitate concentration [mM] Nd” value was determined as 4.61 mM, the “Supernatant concentration [mM] Dy” value is recorded as 1.20 mM and the “Supernatant concentration [mM] Nd” value is 0.34 mM.
Turning to `O=CO` [formate], the “Precipitate concentration [mM] Dy” value (additive 50 mM) is recorded as 4.33 mM, the “Precipitate concentration [mM] Dy” value (additive 100 mM) came to 3.84 mM, the “Precipitate concentration [mM] Dy” value (additive 250 mM) was 3.33 mM and the “Precipitate concentration [mM] Dy” value (additive 500 mM) is reported as 2.09 mM. The “Precipitate concentration [mM] Nd” value (additive 50 mM) was 5.17 mM, the “Precipitate concentration [mM] Nd” value (additive 100 mM) is recorded as 4.85 mM, the “Precipitate concentration [mM] Nd” value (additive 250 mM) worked out at 5.38 mM and the “Precipitate concentration [mM] Nd” value (additive 500 mM) was 4.93 mM. For the same compound, the “Supernatant concentration [mM] Dy” value by setting is: (additive 50 mM) 0.51 mM; (additive 100 mM) 1.09 mM; (additive 250 mM) 1.68 mM; (additive 500 mM) 2.51 mM. In addition, the “Supernatant concentration [mM] Nd” value is 0.07 mM (additive 50 mM), 0.42 mM (additive 100 mM), 0.11 mM (additive 250 mM) and 0.22 mM (additive 500 mM).
On to `C[C@H](O)C(=O)O` [l-lactate], for which, for the setting “additive 5 mM”, the “Precipitate concentration [mM] Dy” value is on record as 3.15 mM, the “Precipitate concentration [mM] Nd” value came out at 4.33 mM, the “Supernatant concentration [mM] Dy” value turned out to be 1.59 mM and the “Supernatant concentration [mM] Nd” value worked out at 0.51 mM. Besides, under “additive 10 mM”, the “Precipitate concentration [mM] Dy” value came out at 2.08 mM, the “Precipitate concentration [mM] Nd” value amounted to 4.49 mM, the “Supernatant concentration [mM] Dy” value turned out to be 2.47 mM and the “Supernatant concentration [mM] Nd” value is recorded as 0.21 mM. In addition, for the setting “additive 15 mM”, the “Precipitate concentration [mM] Dy” value was 1.60 mM, the “Precipitate concentration [mM] Nd” value was 4.38 mM, the “Supernatant concentration [mM] Dy” value amounted to 3.21 mM and the “Supernatant concentration [mM] Nd” value is 0.49 mM. In addition, under “additive 20 mM”, the “Precipitate concentration [mM] Dy” value stood at 1.18 mM, the “Precipitate concentration [mM] Nd” value came to 4.33 mM, the “Supernatant concentration [mM] Dy” value was determined as 3.57 mM and the “Supernatant concentration [mM] Nd” value is listed as 0.50 mM.
With `O=C(O)c1cccc(C(=O)O)n1` [dipicolinic acid], where the note is “additive 20 mM”, the “Precipitate concentration [mM] Dy” value was 0.36 mM, the “Precipitate concentration [mM] Nd” value amounted to 2.66 mM, the “Supernatant concentration [mM] Dy” value was 4.29 mM and the “Supernatant concentration [mM] Nd” value worked out at 2.21 mM.
